“Also recorded” adds a separate entry of the source.
How the values were obtained:
[1] = Fujii and Nakamura 1977; cited from earlier work
[2] = test system: ouabain-induced cardiac arrhythmia; assay: Ouabain-induced arrhythmia model; assay type: in vivo, guinea pig; details: for antiarrhythmic effect: onset of P-P interval prolongation, T-P overlapping, ventricular arrhythmia, ventricular fibrillation and cardiac arrest: i.v. infusion over 5 min: ATP 10 or 30 mg/kg, Ap4 A 30 mg/kg, disopyramide 5 mg/kg, ouabain 7 μg/kg/min
Description: With a guinea pig (b.w. 450 g) placed under urethane anesthesia (1.1 g/kg), its femoral vein, jugular vein and carotid artery were cannulated. Ap4 A, ATP or disopyramide was injected into the femoral vein and ouabain into the jugular vein through each cannula, while the carotid artery was utilized for a blood pressure monitoring. Changes associated with the administration of the drug were assessed by monitoring electrocardiogram (ECG), blood pressure, mean blood pressure and heart rate (Nihon Kohden Co.; Models AB620G, AP601G and AT601G). ECG was recorded in accordance with the lead II.
Ouabain-induced cardiac arrhythmia model was prepared by continuous infusion of ouabain at a rate of 7 μg/kg/min via the jugular vein. Each drug was administered by intravenous infusion over a period of 5 minutes at the following dose: ATP, 10 or 30 mg/kg; Ap4 A, 30 mg/kg; and disopyramide, 5 mg/kg. The drug was administered simultaneously with the infusion of ouabain. The antiarrhythmic effect of the drug tested was assessed in terms of the total dose of ouabain given until onset of each of the following parameters: P-P interval prolongation, T-P overlapping, ventricular arrhythmia, ventricular fibrillation and cardiac arrest.

arrhythmia = details: cited from earlier work; for antiarrhythmic activity: Somlo 1955, Komor and Garas 1955
[3] = test system: adrenaline-induced cardiac arrhythmia; assay: Adrenaline-induced arrhythmia model; assay type: in vivo, guinea pig; details: for incidence of extrasystole: 10 mg/kg/5min i.v., adrenaline 10 μg/kg, control value 39%; for antiarrhythmic effect (reduction of incidence of extrasystole): i.v. infusion over 5 min: ATP 3 or 10 mg/kg, Ap4 A 3 or 10 mg/kg, propranolol 1 mg/kg
Description: With a guinea pig (b.w. 450 g) placed under urethane anesthesia (1.1 g/kg), its femoral vein, jugular vein and carotid artery were cannulated. Ap4 A, ATP or propranolol was injected into the femoral vein and adrenaline into the jugular vein through each cannula, while the carotid artery was utilized for a blood pressure monitoring. Changes associated with the administration of the drug were monitored in the same manner as above (B), and ECG was recorded in accordance with the lead II.
Adrenaline-induced cardiac arrhythmia model was prepared by injecting adrenaline (10 μg/kg) into the jugular vein over 5 seconds. Each drug was administered by intravenous infusion over a period of 5 minutes at the following dose: ATP, 3 or 10 mg/kg; Ap4 A, 3 or 10 mg/kg; propranolol, 1 mg/kg. Adrenaline was administered in a single dose 4 minutes after administration of the drug tested. The grading of arrhythmia was assessed in terms of the incidence of extrasystole.

platelet aggregation = assay: Platelet aggregation by the drug itself in absence of ADP; assay type: cell-based, rabbit
guinea pig right atrium = assay: Effect on heart rate of isolated guinea pig right atrium; details: for change of heart rate (bradycardic effect): single dose, 10^-7 to 10^-4 M, KH solution, 31° C.
Description: A guinea pig (b.w. 450 g) was stunned and was immediately removed its heart to excise the right atrium therefrom. The right atrium was then suspended in a Magnus tube (30 ml) filled with Krebs-Henseleit (KH) solution which was maintained at 31° C. constantly aerating with a mixture of 95% O2 --5% CO2 therein. After the KH solution was changed with the fresh one at 15-minutes intervals and the heart rate of the right atrium was stabilized in 60-90 minutes, Ap4 A or ATP which was prepared at different concentrations was added to the KH solution in a single dose to determine the change of heart rate. Drug concentrations of 10^-4, 10^-5, 10^-6 and 10^-7 M were employed in this experiment. The heart rate was determined with a cardiotachometer (Nihon Kohden Co.; Model AT601G; Japan) and an isometric converter (Nihon Kohden Co.; Model TB-651T), with a 1-g weight load.

hepatocytes = details: Rapaport and Zamecnick 1976; cited from earlier work
[4] = test system: adenosine diphosphate (ADP)-stimulated human platelet aggregation; details: Luthje and Ogiluie 1984; cited from earlier work
guinea pig heart = assay: Coronary vasodilative effect, Langendorff perfusion of isolated heart
Description: An experiment was performed by a modification of the method of Aronson and Serlick [Toxicol. Appl. Pharmac., 38, 479-488 (1976) and 39, 157-176 (1977); Biochem. Pharmac. 26, 2297-2305 (1977)]. The guinea pig heart removed was started perfusing at the origin of the aorta by the Langendorff perfusion method. Perfusion was carried out at 37° C. and 14 ml/min of flow rate with a peristalic pump (TAIYO TYPE 1500N; Japan) in Krebs-Henseleit solution (KH: NaCl, 118 mM; phosphate, 1.2 mM; NaHCO3, 25 mM; glucose, 10 mM; KCl, 4.7 mM; CaCl2, 2.5 mM; and MgSO4, 1.2 mM; pH 7.4; bubbling with 95% O2 - 5% CO2). After the initiation of the perfusion, an incision was made in the left auricle and a cannula was inserted into the left ventricle via the left atrium to measure the left ventricular pressure with a pressure transducer (Nihon Kohden Co.; Model TP-200T). The differential value of the left ventricular pressure (dp/dt) was measured with a cardiotachometer (Nihon Kohden Co.; Model AT-601G). The perfusion pressure was determined with a pressure transducer connected to the aortic cannula. Ap4 A was dissolved in KH at various concentrations and administered to the perfusion system in a single dose of 1-100 μg/0.1 ml/5 sec or by a continuous infusion of 1-100 μg/5ml/15 min.

[5] = test system: baby hamster kidney cells; details: Grummt 1978; cited from earlier work
[6] = test system: ADP-induced platelet aggregation; assay: ADP-induced platelet aggregation in platelet-rich plasma; assay type: cell-based, rabbit; details: ADP 5 μM
Description: Blood was collected from the carotid artery of an unanesthetized rabbit into a syringe containing one volume of 3.8% sodium citrate per nine volumes of blood. The citrated blood was centrifuged at 1100 rpm for 15 minutes, and the supernatant was obtained as platelet-rich plasma (PRP). To 200 μl of PRP in an aggregometer, 10 μl of ATP or Ap4 A solution was added and the mixture was incubated at 37° C. for 10 minutes, followed by addition of 10 μl of 0.1 mM ADP solution (final concentration: 5μM) to induce and measure the aggregation of platelets. Results obtained for ATP are shown in FIG. 5A and those for Ap4 A in FIG. 5B.

[7] = Half lethal dose, Lichfield-Wilcoxon method; details: in vivo, iv, rat
Description: Ap4 A is a novel type of nucleotide discovered in human platelets in a recent year and has the following chemical structure: [drawing 1] The active ingredient Ap4 A of the pharmaceutical composition according to the present invention is thus preferably in a form of a pharmaceutically acceptable salt thereof such as sodium salt, or it may be in a form of free acid thereof. Ap4 A can be produced by a conventional organic synthesis or by an enzymatic synthesis with, for example, leucyl tRNA synthetase derived from thermophilic Bacillus stearothermoohillus (Japanese Patent Application Laid-Open (KOKAI) No. 62-278992; U.S. Pat. NO. 4886749; EP-A-247819), using ATP as the starting material in either method. […] J. Physiol., 254, 828-832 (1988)].

rabbit mesenteric artery = details: Busse et al. 1988; cited from earlier work
[8] = 3×10^-5 M or more, absence of ADP
[9] = single dose 1-100 μg/0.1 ml/5 sec

Nc1ncnc2c1ncn2[C@@H]1O[C@H](COP(=O)(O)OP(=O)(O)OP(=O)(O)O)[C@@H](O)[C@H]1O [ATP, Adenosine 5'-triphosphate, reference compound]
vasodilation and other pharmacological effects [1]: vasodilation; also recorded: enhancement of in vivo metabolic activity; also recorded: increase in muscle contraction; also recorded: rise of efficiency of the neural transmission
antiarrhythmic effect: onset of P-P interval prolongation, T-P overlapping, ventricular arrhythmia, ventricular fibrillation and cardiac arrest [2]: has an antiarrhythmic activity; also recorded: inhibited all these parameters
antiarrhythmic activity (arrhythmia): possess the antiarrhythmic activity
effect on paroxysmal supraventricular tachycardia (arrhythmia; clinical, Otsuka et al. 1986): successful arrest of the paroxysmal supraventricular tachycardia; also recorded: efficacy against the paroxysmal supraventricular tachycardia which is insusceptible to other antiarrhythmic drugs such as verapamil, digoxin and ajimaline
incidence of extrasystole [3]: 5.3%
antiarrhythmic effect (reduction of incidence of extrasystole) [3]: reduced the incidence of extrasystole with a dose-dependency; also recorded: dose-dependent reduction of the incidence of extrasystole
platelet aggregation by the drug itself (platelet aggregation; [8]): caused a dose-dependent aggregation of platelets
minimal effective concentration (platelet aggregation; Oryctolagus cuniculus, Platelet, absence of ADP, read-out: concentration causing dose-dependent aggregation of platelets): ≥ 30 µM
platelet-aggregating activity (platelet aggregation; in words, found by the inventors): has platelet-aggregating activity
change of heart rate (bradycardic effect) (guinea pig right atrium): reduced the heart rate with a dose-dependency; also recorded: decreased the atrial heart rate with a dose-dependency

Nc1ncnc2c1ncn2[C@@H]1O[C@H](COP(=O)(O)OP(=O)(O)OP(=O)(O)OP(=O)(O)OC[C@H]2O[C@@H](n3cnc4c(N)ncnc43)[C@H](O)[C@@H]2O)[C@@H](O)[C@H]1O [Ap4 A, diadenosine 5',5'''-P^1,P^4 -tetraphosphate]
antiarrhythmic effect compared with ATP ([2]; 30 mg/kg i.v., same dose of ATP): practically the same as that of ATP, or slightly lower; also recorded: virtually comparable with or slightly inferior to that of ATP
antiarrhythmic effect: onset of P-P interval prolongation, T-P overlapping, ventricular arrhythmia, ventricular fibrillation and cardiac arrest [2]: inhibited the onsets of such parameters as P-P interval prolongation, T-P overlapping, ventricular arrhythmia, ventricular fibrillation and cardiac arrest; also recorded: inhibited all these parameters
growth of hepatocytes (hepatocytes): promotion of the growth of hepatocytes
effect on ADP-stimulated human platelet aggregation [4]: inhibitory effect
perfusion pressure and left ventricular pressure (guinea pig heart; continuous infusion 1-100 μg/5ml/15 min): the perfusion pressure and the left ventricular pressure decreased depending on the dose of Ap4 A
dose showing coronary vasodilative effect without affecting heart rate or left ventricular pressure (guinea pig heart; e.g.): 1 µg
heart rate (guinea pig heart; [9]): marked decrease of heart rate
left ventricular pressure (guinea pig heart; [9]): fell transiently after administration and subsequently it was elevated
perfusion pressure (guinea pig heart; [9]): dose-dependent fall of perfusion pressure; also recorded: observed from the lowest dose of Ap4 A
perfusion pressure (coronary vasodilative activity) (guinea pig heart; single or continuous dose): the perfusion pressure decreased depending on the dose
incidence of extrasystole [3]: 8.0%
antiarrhythmic effect (reduction of incidence of extrasystole) [3]: reduced the incidence of extrasystole with a dose-dependency; also recorded: dose-dependent reduction of the incidence of extrasystole
antiarrhythmic effect compared with ATP ([3]; i.v., incidence of extrasystole): somewhat inferior to that of ATP; also recorded: somewhat weaker than that of ATP
platelet aggregation by the drug itself (platelet aggregation; [8]): did not cause platelet aggregation at all
platelet aggregation by the drug itself (platelet aggregation; even at 3×10^-4 M): no activity of platelet aggregation; also recorded: no effect of the platelet aggregation
DNA synthesis [5]: enhancement of DNA synthesis
relative potency vs ATP (change of heart rate) (guinea pig right atrium; 10^-4 M): 2.1 -fold
relative potency vs ATP (change of heart rate) (guinea pig right atrium; 10^-5 M): 1.5 -fold
relative potency vs ATP (change of heart rate) (guinea pig right atrium; 10^-6 M): 1.5 -fold
potency compared with ATP (percent change of heart rate) (guinea pig right atrium; in words): prone to be more potent than ATP; also recorded: tends to be greater than that of ATP
change of heart rate (bradycardic effect) (guinea pig right atrium): reduced the heart rate with a dose-dependency; also recorded: decreased the atrial heart rate with a dose-dependency
inhibition of ADP-induced platelet aggregation ([6]; 3×10^-5 M to 3×10^-4 M, in words): markedly inhibited ADP-induced platelet aggregation with a dose-dependency; also recorded: inhibited by Ap4 A with a dose-dependency
inhibition at 300 µM ([6]; Oryctolagus cuniculus, Platelet, 3×10^-4 M, rabbit PRP, 37° C., 10 min preincubation, vs control): 76%
inhibition at 30 µM ([6]; Oryctolagus cuniculus, Platelet, 3×10^-5 M, rabbit PRP, 37° C., 10 min preincubation, vs control): 21%
LD50 [7]: 102 mg/kg
vasodilative action (rabbit mesenteric artery): vasodilative action

Nc1ncnc2c1ncn2[C@@H]1O[C@H](CO)[C@@H](O)[C@H]1O [adenosine]
antiarrhythmic activity (arrhythmia): possess the antiarrhythmic activity

CC(C)N(CCC(C(N)=O)(c1ccccc1)c1ccccn1)C(C)C (stereo not drawn) [disopyramide, reference compound]
antiarrhythmic effect: onset of P-P interval prolongation, T-P overlapping, ventricular arrhythmia, ventricular fibrillation and cardiac arrest [2]: has an antiarrhythmic activity; also recorded: inhibited all these parameters

CC(C)NCC(O)COc1cccc2ccccc12 (stereo not drawn) [propranolol, reference compound]
antiarrhythmic effect (reduction of incidence of extrasystole) [3]: reduced the incidence of extrasystole with a dose-dependency; also recorded: dose-dependent reduction of the incidence of extrasystole

Source: US5219841A, “Treatment of arrhythmia by administration of Ap4 A” (Fujirebio, Inc., priority 1989, dated 1993)
